The nature of assay [1]: Induction of reactive oxygen species production assessed as increase in hydrogen peroxide production […] in presence of DTT by redox cycling assay. It counts as functional.
Assay [2] relates to DU-145. Kind of assay: Synergistic cytotoxicity against human DU-145 cells assessed as combination index incubated for 72 hrs in presence of doxorubicin by MTT-based Chou-Talalay method. It counts as functional.
Assay [3] is described as follows: Synergistic cytotoxicity against chicken DT40 cells expressing human TDP2 assessed as combination index incubated for 72 hrs in presence of etoposide by MTT-based Chou-Talalay method. Format: functional, Gallus gallus.
The target of assay [4] is T1, Tyrosyl-DNA phosphodiesterase 2 (Homo sapiens, UniProt O95551).
T1 sequence (O95551 whole entry): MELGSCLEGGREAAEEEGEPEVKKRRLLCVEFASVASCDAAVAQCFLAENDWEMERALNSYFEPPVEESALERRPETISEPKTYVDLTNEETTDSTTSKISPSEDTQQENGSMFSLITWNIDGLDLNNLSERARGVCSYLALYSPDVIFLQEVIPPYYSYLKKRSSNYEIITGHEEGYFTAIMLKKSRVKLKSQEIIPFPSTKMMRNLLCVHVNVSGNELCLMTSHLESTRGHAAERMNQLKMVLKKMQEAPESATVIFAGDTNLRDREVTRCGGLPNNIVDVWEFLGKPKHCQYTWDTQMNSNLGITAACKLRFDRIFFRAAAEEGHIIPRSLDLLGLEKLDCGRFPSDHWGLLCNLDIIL
The experiment in a line: Inhibition of N-terminal His-tagged human TDP2 expressed in Escherichia coli BL21 using 4-nitrophenyl phenylphosphonate as substrate incubated for 60 mins by EDTA based chromogenic assay.

Assay [5] relates to DU-145. The experiment in a line: Cytotoxicity against human DU-145 cells assessed as cell growth inhibition for 72 hrs by MTT assay. Format: functional.
Assay [6] can be described thus: Synergistic cytotoxicity against chicken DT40 cells assessed as combination index incubated for 72 hrs in presence of etoposide by MTT-based Chou-Talalay method. Format: functional, Gallus gallus.
For the next assay, the system named is A549. The experiment in a line: Cytotoxicity against human A549 cells assessed as cell growth inhibition for 72 hrs by MTT assay. It counts as functional.
Assay [7] concerns DU-145. The experiment in a line: Cytotoxicity against human DU-145 cells assessed as cell growth inhibition for 72 hrs in presence of etoposide by MTT assay. Format: functional.
Assay [8] has as its system DU-145. Kind of assay: Synergistic cytotoxicity against human DU-145 cells assessed as combination index incubated for 72 hrs in presence of etoposide by MTT-based Chou-Talalay method. Format: functional.
Assay [9] concerns DU-145. Kind of assay: Synergistic cytotoxicity against human DU145 cells assessed as inhibition of colony formation at 5 uM incubated for 14 days in presence of etoposide by crystal violet staining based analysis. It counts as functional, cell-based. As to conditions: time 14.0 day.
In assay [10] the test system is DU-145. The experiment in a line: Synergistic cytotoxicity against human DU145 cells assessed as inhibition of colony formation at 5 uM incubated for 14 days in presence of doxorubicin by crystal violet staining based analysis. It counts as functional, cell-based. Particulars: time 14.0 day.
The test system of assay [11] is DU-145. Kind of assay: Cytotoxicity against human DU-145 cells assessed as cell growth inhibition at 10 uM for 72 hrs by MTT assay. Format: functional. In general terms: Formazan colour is commonly taken as a measure of viable cells.

Active and inactive are the calls of the source. The rule behind the calls is not given here.

On to `CC1(C)CCC2=C(O1)c1ccccc1C(=O)C2=O`, for which the result in [1] was Active.
For the compound `CC(C)[C@@H]1C2=C(Oc3c1c(OCC(=O)N(C)C)cc1c3[C@@H](C(C)C)C3=C(O1)C(C)(C)C(=O)C(C)(C)C3=O)C(C)(C)C(=O)C(C)(C)C2=O`, the CI turned out to be 0.81 in the assay on DU-145 [2], 0.48 in [3], 0.95 in [6] and 0.26 in the assay on DU-145 [8]. In assay [4], this compound had an IC50 of 5.4 µM. Moreover, the 50% growth inhibitory concentration (GI50) in the assay with DU-145 [5] (Homo sapiens, DU-145, 72 h) was 26 µM; with A549 (Homo sapiens, A549, 72 h) it was 62 µM. For the same compound, the “inhibition (INH)” value with DU-145 [7] came to 77%. Also, the result in the assay on DU-145 [9] and in the assay on DU-145 [10] was Active.
Take `CCOc1cc2c(c3c1[C@H](C(C)C)C1=C(O3)C(C)(C)C(=O)C(C)(C)C1=O)[C@@H](C(C)C)C1=C(O2)C(C)(C)C(=O)C(C)(C)C1=O`: in [4], the half-inhibitory concentration (IC50) turned out to be 21 µM. Also, the GI50 with DU-145 [5] (Homo sapiens, DU-145, 72 h) was 12 µM; in the assay on A549 (Homo sapiens, A549, 72 h), 24 µM.
On the same counts, the results for `CC(C)Oc1cc2c(c3c1[C@H](C(C)C)C1=C(O3)C(C)(C)C(=O)C(C)(C)C1=O)[C@@H](C(C)C)C1=C(O2)C(C)(C)C(=O)C(C)(C)C1=O` are 28 µM, 20 µM and 33 µM.
On the same counts, the results for `CC(C)[C@@H]1C2=C(Oc3c1c(OCCCN(C)C)cc1c3[C@@H](C(C)C)C3=C(O1)C(C)(C)C(=O)C(C)(C)C3=O)C(C)(C)C(=O)C(C)(C)C2=O` are 10 µM, 23 µM and 46 µM.
On the same counts, the results for `CC(C)[C@H]1C2=C(Oc3c1c(O)cc1c3[C@@H](C(C)C)C3=C(O1)C(C)(C)C(=O)C(C)(C)C3=O)C(C)(C)C(=O)C(C)(C)C2=O` are 32 µM, 16 µM and 38 µM.
In turn, `CC(C)[C@@H]1C2=C(Oc3c1c(O)cc1c3[C@H](C(C)C)C3=C(O1)C(C)(C)C(=O)C(C)(C)C3=O)C(C)(C)C(=O)C(C)(C)C2=O` yielded a half-inhibitory concentration (IC50) in assay [4] of 36 µM. Further, the GI50 in the assay on DU-145 [5] (Homo sapiens, DU-145, 72 h) turned out to be 26 µM; in the assay on A549 (Homo sapiens, A549, 72 h) it was 56 µM.
On the same counts, the results for `CC(C)C(=O)c1c(O)c2c(c3c1OC1=C(C(=O)C(C)(C)C(=O)C1(C)C)[C@H]3C(C)C)OC1=C(C(=O)C(C)(C)C(=O)C1(C)C)[C@H]2C(C)C` are 32 µM, 38 µM and 65 µM.
`CC(C)C(=O)c1c(O)c2c(c3c1OC1=C(C(=O)C(C)(C)C(=O)C1(C)C)[C@@H]3C(C)C)OC1=C(C(=O)C(C)(C)C(=O)C1(C)C)[C@@H]2C(C)C`: the half-inhibitory concentration (IC50) in assay [4] stood at 48 µM. Also, the concentration for 50% growth inhibition (GI50) in the assay with DU-145 [5] (72 h) worked out at 15 µM; in the assay on A549 (72 h) it was 28 µM.
In the case of `CC(C)CCOc1cc2c(c3c1[C@H](C(C)C)C1=C(O3)C(C)(C)C(=O)C(C)(C)C1=O)[C@@H](C(C)C)C1=C(O2)C(C)(C)C(=O)C(C)(C)C1=O`, in assay [4], the half-maximal inhibitory concentration (IC50) was 26 µM. Besides, the GI50 with DU-145 [5] (Homo sapiens, DU-145, 72 h) worked out at 19 µM; with A549 (Homo sapiens, A549, 72 h), 37 µM.
The like results for `CC(C)[C@@H]1C2=C(Oc3c1c(OCCC1OCCO1)cc1c3[C@@H](C(C)C)C3=C(O1)C(C)(C)C(=O)C(C)(C)C3=O)C(C)(C)C(=O)C(C)(C)C2=O` were, in that order, 17 µM, 12 µM and 21 µM.
As for `COc1cc([C@@H]2c3cc4c(cc3[C@@H](O[C@@H]3O[C@@H]5CO[C@@H](C)O[C@H]5[C@H](O)[C@H]3O)[C@H]3COC(=O)[C@H]23)OCO4)cc(OC)c1O` [ETOPOSIDE], the GI50 amounted to 13 µM in the assay with DU-145 [5] (Homo sapiens, DU-145, 72 h) and 10 µM with A549 (Homo sapiens, A549, 72 h). Moreover, the inhibition at 10 µM in the assay with DU-145 [11] was 47%.

One may read the IC50 as the concentration at which inhibition is half-maximal. A word on the GI50: it is the concentration at which growth is held to half of that of the control. The inhibition is how much of the control response was suppressed.

The values above are taken from ChEMBL document CHEMBL5113405, “Discovery, enantioselective synthesis of myrtucommulone E analogues as tyrosyl-DNA phosphodiesterase 2 inhibitors and their biological activities” (Eur J Med Chem, 2022).
